Assay results: US7964560B2, “Hepatitis C virus inhibitors” (Bristol-Myers Squibb Company, priority 2008, dated 2011)
Where two headings read alike, the source gives them in different places.

Legend:
[1] = tested on: HCV replicon in HUH-7 cells; assay: HCV replicon FRET assay; assay type: cell-based, Hepatitis C virus (strain 1b); conditions: Hepatitis C virus, Huh-7, Table 2, HCV replicon, replicon assay format not stated, read-out: EC50
From the text: An HCV replicon whole cell system was established as described by Lohmann, V. et al., Science, 285(5424):110-113 (1999). This system enabled us to evaluate the effects of our HCV Protease compounds on HCV RNA replication. Briefly, using the HCV strain 1b sequence described in the Lohmann paper (Accession number: AJ238799), an HCV cDNA was synthesized by Operon Technologies, Inc. (Alameda, Calif.), and the full-length replicon was then assembled in plasmid pGem9zf(+) (Promega, Madison, Wis.) using standard molecular biology techniques. The replicon consists of (i) the HCV 5′ UTR fused to the first 12 amino acids of the capsid protein, (ii) the neomycin phosphotransferase gene (neo), (iii) the IRES from encephalomyocarditis virus (EMCV), and (iv) HCV NS3 to NS5B genes and the HCV 3′ UTR. Plasmid DNAs were linearized with ScaI and RNA transcripts were synthesized in vitro using the T7 MegaScript transcription kit (Ambion, Austin, Tex.) according to manufacturer's directions. In vitro transcripts of the cDNA were transfected into the human hepatoma cell line, HUH-7. […] Resulting cell lines were characterized for positive and negative strand RNA production and protein production over time.
The HCV replicon FRET assay was developed to monitor the inhibitory effects of compounds described in the disclosure on HCV viral replication. HUH-7 cells, constitutively expressing the HCV replicon, were grown in Dulbecco's Modified Eagle Media (DMEM) (Gibco-BRL) containing 10% Fetal calf serum (FCS) (Sigma) and 1 mg/ml G418 (Gibco-BRL). Cells were seeded the night before (1.5×10^4 cells/well) in 96-well tissue-culture sterile plates. Compound and no compound controls were prepared in DMEM containing 4% FCS, 1:100 Penicillin/Streptomysin (Gibco-BRL), 1:100 L-glutamine and 5% DMSO in the dilution plate (0.5% DMSO final concentration in the assay). Compound/DMSO mixes were added to the cells and incubated for 4 days at 37° C. After 4 days, cells were first assessed for cytotoxicity using alamar Blue (Trek Diagnostic Systems) for a CC50 reading. The toxicity of compound (CC50) was determined by adding 1/10th volume of alamar Blue to the media incubating the cells. After 4 h, the fluorescence signal from each well was read, with an excitation wavelength at 530 nm and an emission wavelength of 580 nm, using the CYTOFLUOR® Series 4000 (Perspective Biosystems). Plates were then rinsed thoroughly with Phosphate-Buffered Saline (PBS) (3 times 150 μl). The cells were lysed with 25 μl of a lysis assay reagent containing an HCV protease substrate (5× cell Luciferase cell culture lysis reagent (PROMEGA® #E153A) diluted to 1× with distilled water, NaCl added to 150 mM final, the FRET peptide substrate (as described for the enzyme assay above) diluted to 10 μM final from a 2 mM stock in 100% DMSO. The plate was then placed into the CYTOFLUOR® 4000 instrument which had been set to 340 nm excitation/490 nm emission, automatic mode for 21 cycles and the plate read in a kinetic mode. EC50 determinations were carried out as described for the IC50 determinations.

[2] = molecular target: T1, HCV NS3/4A protease complex, BMS strain (UniProt P27958, species not given/STRAIN_BMS); assay: FRET peptide assay to monitor HCV NS3/4A proteolytic activity (BMS strain); assay type: biochemical, Hepatitis C virus (genotype 1a); conditions: Table 2, NS3/4A BMS strain
T1 construct: said of H77 and J4L6S; fused on or other part: three-lysine solubilising tail at the end of NS4A (printed for the H77 and J4L6S constructs; probably the same for BMS)
T1 sequence (P27958 1027-1657, change not shown, one chain of several): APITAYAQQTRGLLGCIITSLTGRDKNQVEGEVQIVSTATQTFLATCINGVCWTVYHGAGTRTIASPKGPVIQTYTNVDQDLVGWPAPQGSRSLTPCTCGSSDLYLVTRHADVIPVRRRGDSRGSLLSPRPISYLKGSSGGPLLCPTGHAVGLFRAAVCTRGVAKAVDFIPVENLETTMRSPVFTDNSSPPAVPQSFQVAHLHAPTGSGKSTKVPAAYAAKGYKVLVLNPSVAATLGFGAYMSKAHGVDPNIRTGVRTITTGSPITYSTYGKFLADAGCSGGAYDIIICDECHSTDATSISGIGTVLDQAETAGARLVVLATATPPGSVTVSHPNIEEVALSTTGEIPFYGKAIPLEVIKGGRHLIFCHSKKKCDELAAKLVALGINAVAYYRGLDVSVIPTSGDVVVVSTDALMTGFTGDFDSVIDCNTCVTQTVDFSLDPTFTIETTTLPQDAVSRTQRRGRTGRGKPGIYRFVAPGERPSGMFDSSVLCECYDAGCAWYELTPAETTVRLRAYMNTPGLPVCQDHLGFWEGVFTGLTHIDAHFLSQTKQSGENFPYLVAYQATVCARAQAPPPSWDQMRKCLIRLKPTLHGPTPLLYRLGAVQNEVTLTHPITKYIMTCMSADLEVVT
From the text: HCV […] protease complexes, derived from the BMS strain, H77 strain or J4L6S strain, were generated, as described below. These purified recombinant proteins were generated for use in a homogeneous assay (see below) to provide an indication of how effective compounds of the present disclosure would be in inhibiting HCV NS3 proteolytic activity.
Serum from an HCV-infected patient was obtained from Dr. T. Wright, San Francisco Hospital. An engineered full-length cDNA (compliment deoxyribonucleic acid) template of the HCV genome (BMS strain) was constructed from DNA fragments obtained by reverse transcription-PCR (RT-PCR) of serum RNA (ribonucleic acid) and using primers selected on the basis of homology between other genotype 1a strains. From the determination of the entire genome sequence, a genotype 1a was assigned to the HCV isolate according to the classification of Simmonds et al. (See Simmonds, P. et al., J. Clin. Microbiol., 31(6), 1493-1503 (1993)). […] The infectious clones, H77 (1a genotype) and J4L6S (1b genotype) were obtained from R. Purcell (NIH) and the sequences are published in GENBANK® (AAB67036, see Yanagi, M. et al., Proc. Natl. Acad. Sci. U.S.A., 94(16):8738-8743 (1997); AF054247, see Yanagi, M. et al., Virology, 244(1):161-172 (1998)).
The H77 and J4L6S strains were used for production of recombinant NS3/4A protease complexes. DNA encoding the recombinant HCV NS3/4A protease complex (amino acids 1027 to 1711) for these strains were manipulated as described by P. Gallinari et al. (see Gallinari, P. et al, Biochemistry, 38(17):5620-5632 (1999)). Briefly, a three-lysine solubilizing tail was added at the 3′-end of the NS4A coding region. The cysteine in the P1 position of the NS4A-NS4B cleavage site (amino acid 1711) was changed to a glycine to avoid the proteolytic cleavage of the lysine tag. Furthermore, a cysteine to serine mutation was introduced by PCR at amino acid position 1454 to prevent the autolytic cleavage in the NS3 helicase domain. The variant DNA fragment was cloned in the pET21b bacterial expression vector (Novagen) and the NS3/4A complex was expressed in Escherichia. coli strain BL21 (DE3) (Invitrogen) following the protocol described by P. Gallinari et al. (see Gallinari, P. et al., J. Virol., 72(8):6758-6769 (1998)) with modifications. Briefly, the NS3/4A protease complex expression was induced with 0.5 millimolar (mM) Isopropyl β-D-1-thiogalactopyranoside (IPTG) for 22 hours (h) at 20° C. A typical fermentation (1 Liter (L)) yielded approximately 10 grams (g) of wet cell paste. The cells were resuspended in lysis buffer (10 mL/g) consisting of 25 mM N-(2-hydroxyethyl)piperazine-N′-(2-ethane sulfonic acid) (HEPES), pH 7.5, 20% glycerol, 500 mM sodium chloride (NaCl), 0.5% Triton X-100, 1 microgram/milliliter (“μg/mL”) lysozyme, 5 mM magnesium chloride (MgCl2), 1 μg/ml DnaseI, 5 mM β-mercaptoethanol (βME), protease inhibitor-ethylenediamine tetraacetic acid (EDTA) free (Roche), homogenized and incubated for 20 minutes (min) at 4° C. The homogenate was sonicated and clarified by ultra-centrifugation at 235000 g for 1 hour (h) at 4° C. Imidazole was added to the supernatant to a final concentration of 15 mM and the pH adjusted to 8.0. The crude protein extract was loaded on a Nickel-Nitrilotriacetic acid (Ni-NTA) column pre-equilibrated with buffer B (25 mM HEPES, pH 8.0, 20% glycerol, 500 mM NaCl, 0.5% Triton X-100, 15 mM imidazole, 5 mM βME). The sample was loaded at a flow rate of 1 mL/min. The column was washed with 15 column volumes of buffer C (same as buffer B except with 0.2% Triton X-100). The protein was eluted with 5 column volumes of buffer D (same as buffer C except with 200 mM Imidazole).
NS3/4A protease complex-containing fractions were pooled and loaded on a desalting column Superdex-S200 pre-equilibrated with buffer D (25 mM HEPES, pH 7.5, 20% glycerol, 300 mM NaCl, 0.2% Triton X-100, 10 mM βME). Sample was loaded at a flow rate of 1 mL/min. […]

SMILES | EC50 ([1]; activity range) | IC50 ([2]; activity range) | EC50 ([1]; numeric values) | IC50 ([2]; numeric values)
C=C[C@@H]1C[C@]1(NC(=O)[C@@H]1C[C@@](SC(C)C)(c2ccc(-c3ccccc3)cc2)CN1C(=O)[C@@H](NC(=O)OC(C)(C)C(F)(F)F)C(C)(C)C)C(=O)NS(=O)(=O)C1CC1 [Example 10, 1,1,1-trifluoro-2-methylpropan-2-yl (S)-1-((2S,4R)-4-(biphenyl-4-yl)-2-((1R,2S)-1-(cyclopropylsulfonylcarbamoyl)-2-vinylcyclopropylcarbamoyl)-4-(isopropylthio)pyrrolidin-1-yl)-3,3-dimethyl-1-oxobutan-2-ylcarbamate] | 6 to 100 nM | 1 to 20 nM | – | –
C=C[C@@H]1C[C@]1(NC(=O)[C@@H]1C[C@@](SC(C)C)(c2ccc(-c3ccccc3)cc2)CN1C(=O)[C@@H](NC(=O)OC(C)(C)C)C(C)(C)C)C(=O)NS(=O)(=O)C1CC1 [Example 9, tert-butyl (S)-1-((2S,4R)-4-(biphenyl-4-yl)-2-((1R,2S)-1-(cyclopropylsulfonylcarbamoyl)-2-vinylcyclopropylcarbamoyl)-4-(isopropylthio)pyrrolidin-1-yl)-3,3-dimethyl-1-oxobutan-2-ylcarbamate] | 6 to 100 nM | 1 to 20 nM | – | –
C=CCS[C@@]1(c2ccc(-c3ccccc3)cc2)C[C@@H](C(=O)N[C@]2(C(=O)NS(=O)(=O)C3CC3)C[C@H]2C=C)N(C(=O)[C@@H](NC(=O)OC(C)(C)C)C(C)(C)C)C1 [Example 12, tert-butyl (S)-1-((2S,4R)-4-(allylthio)-4-(biphenyl-4-yl)-2-((1R,2S)-1-(cyclopropylsulfonylcarbamoyl)-2-vinylcyclopropylcarbamoyl)pyrrolidin-1-yl)-3,3-dimethyl-1-oxobutan-2-ylcarbamate] | 6 to 100 nM | 1 to 20 nM | – | –
CCCCS[C@@]1(c2ccc(-c3ccccc3)cc2)C[C@@H](C(=O)N[C@]2(C(=O)NS(=O)(=O)C3CC3)C[C@H]2C=C(F)F)N(C(=O)[C@@H](NC(=O)OC(C)(C)C)C(C)(C)C)C1 [Example 7, tert-butyl (S)-1-((2S,4R)-4-(biphenyl-4-yl)-4-(butylthio)-2-((1R,2S)-1-(cyclopropylsulfonylcarbamoyl)-2-(2,2-difluorovinyl)cyclopropylcarbamoyl)pyrrolidin-1-yl)-3,3-dimethyl-1-oxobutan-2-ylcarbamate] | 6 to 100 nM | 1 to 20 nM | – | –
CCCCS[C@@]1(c2ccc(-c3ccccc3)cc2)C[C@@H](C(=O)N[C@]2(C(=O)NS(=O)(=O)C3CC3)C[C@H]2C2CC2)N(C(=O)[C@@H](NC(=O)OC(C)(C)C)C(C)(C)C)C1 [Example 5, tert-butyl (S)-1-((2S,4R)-4-(biphenyl-4-yl)-4-(butylthio)-2-((1S,2R)-2-(cyclopropylsulfonylcarbamoyl)bi(cyclopropan)-2-ylcarbamoyl)pyrrolidin-1-yl)-3,3-dimethyl-1-oxobutan-2-ylcarbamate] | 6 to 100 nM | 1 to 20 nM | – | –
C=C[C@@H]1C[C@]1(NC(=O)[C@@H]1C[C@@](SC(C)C)(c2ccc(-c3ccccc3)cc2)CN1C(=O)[C@@H](NC(=O)OC1(C)CCCC1)C(C)(C)C)C(=O)NS(=O)(=O)C1CC1 [Example 11, 1-methylcyclopentyl (S)-1-((2S,4R)-4-(biphenyl-4-yl)-2-((1R,2S)-1-(cyclopropylsulfonylcarbamoyl)-2-vinylcyclopropylcarbamoyl)-4-(isopropylthio)pyrrolidin-1-yl)-3,3-dimethyl-1-oxobutan-2-ylcarbamate] | 6 to 100 nM | 1 to 20 nM | – | –
C=C[C@@H]1C[C@]1(NC(=O)[C@@H]1C[C@](c2ccc(-c3ccccc3)cc2)(S(=O)(=O)CCCC)CN1C(=O)[C@@H](NC(=O)OC(C)(C)C)C(C)(C)C)C(=O)NS(=O)(=O)C1CC1 (single isomer, unassigned) [Example 3] | – | – | 6.6 nM | 1 nM
